The structures appear in SMILES notation. Where a name gives a salt, the structure may show the parent alone. Read-outs that look alike come from different tables or passages of the source.

The results in this text go back to patent US10004701B2, “Methods and compositions for treating infection” (UNIVERSITY OF ROCHESTER, priority 2012, dated 2018).

Assay in all cases: AK assay 384-well format, Prestwick library screening
Assay [1] concerns E. faecium. In kind it is cell-based, Enterococcus faecium. The conditions noted are these: 50 μM final drug concentration; for fold induction at 50 µM: Enterococcus faecium, 3 h.
The subject of assay [2] is S. aureus strain USA300-0114. In kind it is cell-based, Staphylococcus aureus. As to conditions: 50 μM final drug concentration; for fold induction at 50 µM: Staphylococcus aureus, USA300, 3 h.
Assay [3] has as its system K. pneumoniae. In kind it is cell-based, Klebsiella pneumoniae. As to conditions: 50 μM final drug concentration; for fold induction at 50 µM: Klebsiella pneumoniae, 3 h.
For assay [4], the system named is A. baumannii strain 98-37-09. In kind it is cell-based, Acinetobacter baumannii. The conditions noted are these: 50 μM final drug concentration; for fold induction at 50 µM: Acinetobacter baumannii, 983709, 3 h.
Assay [5] deals with P. aeruginosa. In kind it is cell-based, Pseudomonas aeruginosa. As to conditions: 50 μM final drug concentration; for fold induction at 50 µM: Pseudomonas aeruginosa, 3 h.
The test system of assay [6] is E. cloacae. In kind it is cell-based, Enterobacter cloacae. The conditions noted are these: 50 μM final drug concentration; for fold induction at 50 µM: Enterobacter cloacae, 3 h.
In assay [7] the test system is E. coli. In kind it is cell-based, Escherichia coli. As to conditions: for fold induction at 50 µM: Escherichia coli, 3 h.
Where [8] appears, read: planktonic E. faecium, 384-well, cutoff for positive-scoring molecules 3-fold increase, read-out: AK-based Prestwick Library Screening Results: E. faecium (increase in extracellular AK activity).
The mark [9] stands for this setting: planktonic S. aureus, 384-well, cutoff for positive-scoring molecules 3-fold increase, read-out: AK-based Prestwick Library Screening Results: S. aureus (increase in extracellular AK activity).
Where [10] appears, read: planktonic K. pneumoniae, 384-well, cutoff for positive-scoring molecules 3-fold increase, read-out: AK-based Prestwick Library Screening Results: K. pneumoniae (increase in extracellular AK activity).
The mark [11] stands for this setting: planktonic A. baumannii, 384-well, cutoff for positive-scoring molecules 3-fold increase, read-out: AK-based Prestwick Library Screening Results: A. baumannii (increase in extracellular AK activity).
[12] abbreviates: planktonic P. aeruginosa, 384-well, cutoff for positive-scoring molecules 3-fold increase, read-out: AK-based Prestwick Library Screening Results: P. aeruginosa (increase in extracellular AK activity).
[13] abbreviates: planktonic E. cloacae, 384-well, cutoff for positive-scoring molecules 3-fold increase, read-out: AK-based Prestwick Library Screening Results: E. cloacae (increase in extracellular AK activity).
The mark [14] stands for this setting: planktonic E. coli, 50 μM final drug concentration, 384-well, cutoff for positive-scoring molecules 3-fold increase, read-out: AK-based Prestwick Library Screening Results: E. coli (increase in extracellular AK activity).
Where [15] appears, read: cutoff for positive-scoring molecules 3-fold increase, read-out: AK-based Prestwick Library Screening Results, E. faecium (fold increase in extracellular AK activity).
Setting [16] is: cutoff for positive-scoring molecules 3-fold increase, read-out: AK-based Prestwick Library Screening Results, S. aureus (fold increase in extracellular AK activity).
Where [17] appears, read: cutoff for positive-scoring molecules 3-fold increase, read-out: AK-based Prestwick Library Screening Results, K. pneumoniae (fold increase in extracellular AK activity).
[18] abbreviates: cutoff for positive-scoring molecules 3-fold increase, read-out: AK-based Prestwick Library Screening Results, A. baumannii (fold increase in extracellular AK activity).
Where [19] appears, read: cutoff for positive-scoring molecules 3-fold increase, read-out: AK-based Prestwick Library Screening Results, P. aeruginosa (fold increase in extracellular AK activity).
Setting [20] is: cutoff for positive-scoring molecules 3-fold increase, read-out: AK-based Prestwick Library Screening Results, E. cloacae (fold increase in extracellular AK activity).
[21] abbreviates: planktonic E. coli, 50 μM final drug concentration, […].

Take `CCN(CC)CC(=O)Nc1c(C)cccc1C` [Lidocaine hydrochloride]: the fold induction at 50 µM in assay [1] (setting [8]) is 1.2; in assay [2] (setting [9]), 1.1; in assay [3] (setting [10]) it was 1.1; in assay [4] (setting [11]), 1.1; in assay [5] (setting [12]), 1.1; in assay [6] (setting [13]) it was 1.3. For the same compound, the fold induction at 50 µM in assay [7] (setting [14]) was 1.3.
For `Cc1cccc(C)c1NC(=O)CN1CCN(CCCC(c2ccc(F)cc2)c2ccc(F)cc2)CC1` [Lidoflazine], the fold induction at 50 µM in assay [1] (planktonic, cutoff for positive 3-fold increase, read-out: AK-based Prestwick Library Screening Results, E. faecium (fold increase in extracellular AK activity)) stood at 1; in assay [2] (planktonic, cutoff for positive 3-fold increase, read-out: AK-based Prestwick Library Screening Results, S. aureus (fold increase in extracellular AK activity)), 1.4; in assay [3] (planktonic, cutoff for positive 3-fold increase, read-out: AK-based Prestwick Library Screening Results, K. pneumoniae (fold increase in extracellular AK activity)) it was 1.1; in assay [4] (planktonic, cutoff for positive 3-fold increase, read-out: AK-based Prestwick Library Screening Results, A. baumannii (fold increase in extracellular AK activity)), 2.9; in assay [5] (planktonic, cutoff for positive 3-fold increase, read-out: AK-based Prestwick Library Screening Results, P. aeruginosa (fold increase in extracellular AK activity)) it was 1.3; in assay [6] (planktonic, cutoff for positive 3-fold increase, read-out: AK-based Prestwick Library Screening Results, E. cloacae (fold increase in extracellular AK activity)), 1.4. Moreover, in assay [7] (50 μM final drug concentration, planktonic, cutoff for positive 3-fold increase, read-out: AK-based Prestwick Library Screening Results, E. coli (fold increase in extracellular AK activity)), the fold induction at 50 µM was determined as 1.4.
With `CCC[C@@H]1C[C@@H](C(=O)N[C@@H]([C@H]2O[C@H](SC)[C@H](O)[C@@H](O)[C@H]2O)[C@@H](C)O)N(C)C1` [Lincomycin hydrochloride], the fold induction at 50 µM was 1.3 in assay [1] (setting [8]); 7.9 in assay [2] (setting [9]); 0.9 in assay [3] (setting [10]); 1.2 in assay [4] (setting [11]); 1.2 in assay [5] (setting [12]); 1.3 in assay [6] (setting [13]). For the same compound, in assay [7] (setting [14]), the fold induction at 50 µM amounted to 0.9.
Turning to `N[C@@H](Cc1cc(I)c(Oc2ccc(O)c(I)c2)c(I)c1)C(=O)O` [Liothyronine], the fold induction at 50 µM in assay [1] (setting [15]) was 1.1; in assay [2] (setting [16]) it was 1; in assay [3] (setting [17]) it was 0.9; in assay [4] (setting [18]) it was 1.1; in assay [5] (setting [19]), 1.1; in assay [6] (setting [20]) it was 1.6. In addition, in assay [7] (read-out: AK-based Prestwick Library Screening Results, E. coli (fold increase in extracellular AK activity)), the fold induction at 50 µM was 1.2.
On to `NCCCC[C@H](N[C@@H](CCc1ccccc1)C(=O)O)C(=O)N1CCC[C@H]1C(=O)O` [Lisinopril], for which the fold induction at 50 µM in assay [1] (setting [8]) stood at 1; in assay [2] (setting [9]), 4.3; in assay [3] (setting [10]), 1; in assay [4] (setting [11]) it was 1.3; in assay [5] (setting [12]), 1.2; in assay [6] (setting [13]) it was 1.5. The fold induction at 50 µM in assay [7] (setting [14]) was determined as 1.2.
In the case of `C[C@H](CCC(=O)O)[C@H]1CC[C@H]2[C@@H]3CC[C@@H]4C[C@H](O)CC[C@]4(C)[C@H]3CC[C@]12C` [Lithocholic acid], the fold induction at 50 µM in assay [1] (setting [15]) was determined as 1.2; in assay [2] (setting [16]), 1.1; in assay [3] (setting [17]), 0.8; in assay [4] (setting [18]), 1; in assay [5] (setting [19]), 1; in assay [6] (setting [20]), 1.7. The fold induction at 50 µM in assay [7] (50 μM final drug concentration, cutoff for positive-scoring molecules 3-fold increase, read-out: AK-based Prestwick Library Screening Results, E. coli (fold increase in extracellular AK activity)) was found to be 0.8.
With `CN1[C@@H](C[C@@H](O)c2ccccc2)CCC[C@H]1C[C@H](O)c1ccccc1.Cl` [Lobelanidine hydrochloride], the “AK-based Prestwick Library Screening Results, E. faecium (increase in extracellular AK activity)” value in assay [1] (planktonic E. faecium, cutoff for positive-scoring molecules 3-fold increase) turned out to be 0.9. For the same compound, the “AK-based Prestwick Library Screening Results, S. aureus (increase in extracellular AK activity)” value in assay [2] (planktonic S. aureus, cutoff for positive-scoring molecules 3-fold increase) amounted to 0.6. Also, the “AK-based Prestwick Library Screening Results, K. pneumoniae (increase in extracellular AK activity)” value in assay [3] (planktonic K. pneumoniae, cutoff for positive-scoring molecules 3-fold increase) is on record as 0.8. For the same compound, in assay [4] (planktonic A. baumannii, cutoff for positive-scoring molecules 3-fold increase), the “AK-based Prestwick Library Screening Results, A. baumannii (increase in extracellular AK activity)” value amounted to 1.0. Also, the “AK-based Prestwick Library Screening Results, P. aeruginosa (increase in extracellular AK activity)” value in assay [5] (planktonic P. aeruginosa, cutoff for positive-scoring molecules 3-fold increase) was 1.0. Further, the “AK-based Prestwick Library Screening Results, E. cloacae (increase in extracellular AK activity)” value in assay [6] (planktonic E. cloacae, cutoff for positive-scoring molecules 3-fold increase) was 1.0. Also, in assay [7] (setting [21]), the “AK-based Prestwick Library Screening Results, E. coli (increase in extracellular AK activity)” value is reported as 1.0.
As for `CN1[C@@H](CC(=O)c2ccccc2)CCC[C@H]1C[C@H](O)c1ccccc1.Cl` [Lobeline alpha (−) hydrochoride], the “AK-based Prestwick Library Screening Results, E. faecium (increase in extracellular AK activity)” value in assay [1] (planktonic E. faecium, […]) turned out to be 0.9. Further, the “AK-based Prestwick Library Screening Results, S. aureus (increase in extracellular AK activity)” value in assay [2] (planktonic S. aureus, […]) stood at 0.8. For the same compound, in assay [3] (planktonic K. pneumoniae, […]), the “AK-based Prestwick Library Screening Results, K. pneumoniae (increase in extracellular AK activity)” value is 0.7. In assay [4] (planktonic A. baumannii, […]), the “AK-based Prestwick Library Screening Results, A. baumannii (increase in extracellular AK activity)” value was determined as 0.8. Besides, the “AK-based Prestwick Library Screening Results, P. aeruginosa (increase in extracellular AK activity)” value in assay [5] (planktonic P. aeruginosa, […]) was found to be 0.9. For the same compound, in assay [6] (planktonic E. cloacae, […]), the “AK-based Prestwick Library Screening Results, E. cloacae (increase in extracellular AK activity)” value is listed as 1.0. In addition, the “AK-based Prestwick Library Screening Results, E. coli (increase in extracellular AK activity)” value in assay [7] (setting [21]) was 1.0.
Take `CCn1cc(C(=O)O)c(=O)c2cc(F)c(N3CCNC(C)C3)c(F)c21` (stereo not shown) [Lomefloxacin hydrochloride]: the fold induction at 50 µM is 1.5 in assay [1] (setting [8]); 3.4 in assay [2] (setting [9]); 1 in assay [3] (setting [10]); 3.8 in assay [4] (setting [11]); 30.2 in assay [5] (setting [12]); 3.5 in assay [6] (setting [13]). Moreover, the fold induction at 50 µM in assay [7] (setting [14]) amounted to 26.8.
`CN(C)C(=O)C(CCN1CCC(O)(c2ccc(Cl)cc2)CC1)(c1ccccc1)c1ccccc1` [Loperamide hydrochloride]: the fold induction at 50 µM in assay [1] (planktonic E. faecium, 384-well, […], read-out: AK-based Prestwick Library Screening Results: E. faecium (increase in extracellular AK activity)) is 0.9; in assay [2] (planktonic S. aureus, 384-well, […], read-out: AK-based Prestwick Library Screening Results: S. aureus (increase in extracellular AK activity)), 1; in assay [3] (planktonic K. pneumoniae, 384-well, […], read-out: AK-based Prestwick Library Screening Results: K. pneumoniae (increase in extracellular AK activity)), 0.9; in assay [4] (planktonic A. baumannii, 384-well, […], read-out: AK-based Prestwick Library Screening Results: A. baumannii (increase in extracellular AK activity)) it was 1.5; in assay [5] (planktonic P. aeruginosa, 384-well, […], read-out: AK-based Prestwick Library Screening Results: P. aeruginosa (increase in extracellular AK activity)) it was 1.2; in assay [6] (planktonic E. cloacae, 384-well, […], read-out: AK-based Prestwick Library Screening Results: E. cloacae (increase in extracellular AK activity)), 1.5. Further, the fold induction at 50 µM in assay [7] (planktonic E. coli, 50 μM final drug concentration, 384-well, […], read-out: AK-based Prestwick Library Screening Results: E. coli (increase in extracellular AK activity)) was 1.4.
